Results: patent publication US11130780B2, “Inhibitors of growth factor activation enzymes” (Washington University, priority 2015, dated 2021)
pKi: −log10 of the molar value. Read-outs that look alike come from different tables or passages of the source.

Columns and labels:
Type in all cases: biochemical
matriptase = biological target: T1, matriptase (Homo sapiens, UniProt Q9Y5Y6); assay: Fluorescent kinetic enzyme inhibitor assay of matriptase; settings: Fluorogenic Assay
T1 construct: Charles Craik, UCSF (obtained from another laboratory)
T1 sequence (Q9Y5Y6 615-855 limits assumed): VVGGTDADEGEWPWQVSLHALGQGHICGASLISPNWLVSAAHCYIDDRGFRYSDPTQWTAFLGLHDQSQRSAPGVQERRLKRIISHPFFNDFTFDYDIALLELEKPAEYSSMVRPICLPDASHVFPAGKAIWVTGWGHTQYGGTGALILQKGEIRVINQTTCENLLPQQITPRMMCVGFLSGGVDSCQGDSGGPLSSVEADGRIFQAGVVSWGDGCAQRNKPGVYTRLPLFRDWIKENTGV
Method: (§1) Inhibitors (11-pt serial dilutions, 0-20 μM final concentration in reaction) were serially diluted in DMSO (2% DMSO final concentration) and then mixed with either recombinant serine protease domain of HGFA [Z. Han, P. K. Harris, D. E. Jones, R. Chugani, T. Kim, M. Agarwal, W. Shen, S. A. Wildman, J. W. Janetka, Acs Med Chem Lett 2014, 5, 1219-1224], matriptase (Charles Craik, UCSF) or hepsin* (#4776-SE-010, R&D Systems, Minneapolis, Minn.) in black 384 well plates (Corning #3575. Corning, N.Y.). […] The final substrate concentrations for all assays were at the Km for the respective enzymes. Changes in fluorescence (excitation at 380 nm and emission at 460 nm) were measured at room temperature over time in a Biotek Synergy 2 plate reader (Winnoski, Vt.). Using GraphPad Prism version 6.04 software program, (GraphPad Software, San Diego, Calif., www.graphpad.com), a four parameter curve fit was used to determine the inhibitor IC50s from a plot of the mean reaction velocity versus the inhibitor concentration. The IC50 values represent the average of three separate experimental determinations.

hepsin = biological target: T2, hepsin (Homo sapiens, UniProt P05981); assay: Fluorescent kinetic enzyme inhibitor assay of hepsin; settings: Fluorogenic Assay, read-out: Hepsin Ki
T2 construct: purchased R&D Systems 4776-SE-010
Method: as §1

HGFA = biological target: T3, HGFA (Homo sapiens, UniProt Q04756); assay: Fluorescent kinetic enzyme inhibitor assay of HGFA; settings: read-out: HGFA Ki
T3 construct: His6 tag (N); seven amino acid spacer and seven amino acid TEV cleavage site (N); Honey Bee melittin signal peptide (N); made in house; host or cells: High 5 insect cells (baculovirus; virus raised in Sf9)
T3 sequence (Q04756 373-655): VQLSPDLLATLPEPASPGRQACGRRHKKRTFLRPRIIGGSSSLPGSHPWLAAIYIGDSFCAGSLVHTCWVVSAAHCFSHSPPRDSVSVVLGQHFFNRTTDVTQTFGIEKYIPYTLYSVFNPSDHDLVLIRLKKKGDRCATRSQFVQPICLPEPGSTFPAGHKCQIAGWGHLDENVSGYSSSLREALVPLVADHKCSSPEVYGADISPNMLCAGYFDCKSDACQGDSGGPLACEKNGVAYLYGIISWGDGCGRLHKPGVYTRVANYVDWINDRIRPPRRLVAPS
From the text: Using primers identified as SEQ ID NO 1, SEQ ID NO 2, and standard PCR protocols, the nucleotide sequence encoding amino acids 373-655 of HGFA was synthesized. This PCR product was cloned into the SfoI-HindIII sites of a modified pFastBac HT baculovirus expression vector (Addgene, Cambridge, Mass.). This vector contains a six amino His tag followed by a seven amino spacer and a seven amino acid TEV cleavage site placed immediately downstream of the Honey Bee melittin signal peptide. Using a modified Bac to Bac Expression System (Life Technologies, Carlsbad, Calif.), recombinant HGFA bacmids were obtained by transforming DH10Bac Escherichia coli cells. To obtain HGFA containing baculovirus, purified bacmids were transfected into Sf9 insect cells. After 5 days in culture at 27° C., media was harvested from transfected Sf9 cells. This media was used to prepare baculovirus infected insect cells (BIICs). These BIIICs were used to infect High 5 insect cells. Four days post infection, media was harvested and recombinant protein prepared as follows. Media was chilled to 4° C. and spun at 4000×g for 20 minutes (all subsequent steps were performed at 4° C. unless noted). Clarified media was passed first through a Whatman GF/B 1 um (#1821-047, GE Healthcare Life Sciences, Piscataway, N.J.) and then a 0.22 um PES membrane (#99955, TPP Techno Plastic Products AG, Trasadingen, Switzerland) and then concentrated using a Pall Centramate tangential flow system and Centramate T-series Cassette (#OS010T12, Pall Corporation, Port Washington, N.Y.). Concentrated media was then buffer exchanged in two steps, five volumes of 50 mM Na-phosphate, 500 mM NaCl, pH 6.2, followed by five volumes of 50 mM Na-phosphate, 500 mM NaCl, pH 7.5. The concentrated and buffered exchanged insect cell media was again filtered as above and made 25 mM imidazole (#1202, Sigma-Aldrich, St. Louis, Mo.) and was mixed with nickel agarose beads (#H-321-25, Gold Biotechnology, Inc., St. Louis Mo.). After mixing this slurry for 12 hours, nickel agarose beads were allowed to settle by gravity and then loaded into a column. Beads were washed with buffer (25 mM Na-phosphate, 500 mM NaCl, 25 mM imidazole, pH 8) and the bound protein eluted using (25 mM Na-phosphate, 500 mM NaCl, 250 mM imidazole, pH 8). Using a Amicon Ultra-4 Centrifugal filters (#UFC801008, Merck Millipore, Ltd., Tullagreen, Ireland), peak protein fractions were concentrated and run over a Superdex-200 10/300 GL column (GE Healthcare Life Sciences, Piscataway, N.J.) in 10 mM Tris, 200 mM NaCl, 0.2 mM EDTA, pH 8. HGFA containing fractions were pooled, concentrated, made 50% glycerol, and stored at minus 20° C. Protein was quantitated using a modified Lowry protein assay (#500-0006, Bio-Rad Laboratories, Hercules, Calif.).
as §1

thrombin = thrombin (Homo sapiens, UniProt P00734); assay: Chromogenic kinetic enzyme assay of thrombin; settings: for pKi: read-out: Thrombin Ki
Method: Inhibitors (11-pt serial dilutions, 0-20 μM final concentration) were serially diluted in DMSO (2% DMSO final concentration) and then mixed with recombinant thrombin (0.15 nM final concentration) or Factor Xa (0.35 nM final concentration) in TNC buffer (25 mM Tris, 150 mM NaCl, 5 mM CaCl2, 0.01% TRITON X-100, pH 8) using clear 384 well plates. […] Changes in absorbance at 405 nm were measured over time in a Biotek Synergy 2 plate (Winnoski, Vt.). Using GraphPad Prism version 6.04 software program, (GraphPad Software, San Diego, Calif., www.graphpad.com), a four parameter curve fit was used to determine the inhibitor IC50s from a plot of the mean reaction velocity versus the inhibitor concentration. Ki values were calculated from the IC50 values using the Cheng and Prusoff equation (Ki=IC50/(1+[S]/Km).

T2 sequence (P05981 163-417 limits assumed): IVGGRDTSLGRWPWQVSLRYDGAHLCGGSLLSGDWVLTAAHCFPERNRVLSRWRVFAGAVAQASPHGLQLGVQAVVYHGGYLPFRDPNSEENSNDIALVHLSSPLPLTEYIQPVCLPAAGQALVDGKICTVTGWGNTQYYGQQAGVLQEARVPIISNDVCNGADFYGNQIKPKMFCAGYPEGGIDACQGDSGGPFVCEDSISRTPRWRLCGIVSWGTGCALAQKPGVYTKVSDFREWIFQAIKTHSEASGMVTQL
T2 sequence (P05981 45-162 partner limits assumed): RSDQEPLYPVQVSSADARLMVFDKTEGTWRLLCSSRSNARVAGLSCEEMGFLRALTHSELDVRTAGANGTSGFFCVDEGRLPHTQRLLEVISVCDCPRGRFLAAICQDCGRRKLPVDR

Work on Cc1ccc(S(=O)(=O)N[C@@H](Cc2cccc(C(=N)N)c2)C(=O)N2CCC(c3ccccc3)CC2)cc1 [Compound 25b, (S)-3-(2-(4-Methylphenylsulfonamido)-3-oxo-3-(4-phenylpiperidin-1-yl)propyl)benzimidamide] yielded a pKi (matriptase; Table 9.1) of 6.24, a pKi (hepsin; Table 9.1) of 5.32 and a pKi (HGFA; Table 9.1, Fluorogenic Assay) of 4.70.
Molecule Cc1ccc(S(=O)(=O)N[C@@H](Cc2cccc(C(=N)N)c2)C(=O)N2CCCC(C(=O)NCCc3ccccc3)C2)cc1 (stereo partly drawn) [Compound 25c, 1-((S)-3-(3-Carbamimidoylphenyl)-2-(4-methylphenylsulfonamido)propanoyl)-N-phenethylpiperidine-3-carboxamide] has a pKi (matriptase; Table 9.2) of 5.89, a pKi (hepsin; Table 9.2) of 6.17 and a pKi (HGFA; Table 9.2, Fluorogenic Assay) of less than 4.30.
CCCCCCNC(=O)N1CCN(C(=O)[C@H](Cc2cccc(C(=N)N)c2)NS(=O)(=O)c2ccc3ccccc3c2)CC1 [Compound 25d, (S)-4-(3-(3-Carbamimidoylphenyl)-2-(naphthalene-2-sulfonamido)propanoyl)-N-hexylpiperazine-1-carboxamide] was tested, and the pKi (matriptase; Table 9.1) was 4.83, the pKi (matriptase; Table 9.1, listed as FMF-1-278-003) was 4.83 and the pKi (hepsin; Table 9.1) was 5.89. For the same molecule, the pKi (HGFA; Table 9.1, Fluorogenic Assay) was less than 4.30.
Molecule N=C(N)c1cccc(C[C@H](NS(=O)(=O)c2ccc3ccccc3c2)C(=O)N2CCN(C(=O)c3csc4ccccc34)CC2)c1 [Compound 25e, (S)-3-(3-(4-(Benzo[b]thiophene-3-carbonyl)piperazin-1-yl)-2-(naphthalene-2-sulfonamido)-3-oxopropyl)benzimidamide] has a pKi (matriptase; Table 9.1) of 5.92, a pKi (hepsin; Table 9.1) of 5.43 and a pKi (HGFA; Table 9.1, Fluorogenic Assay) of less than 4.30.
In the case of N=C(N)c1cccc(C[C@H](NS(=O)(=O)c2ccc3ccccc3c2)C(=O)N2CCC[C@@H](NC(=O)OCc3ccccc3)C2)c1 [Compound 25f, Benzyl (R)-1-((S)-3-(3-carbamimidoylphenyl)-2-(naphthalene-2-sulfonamido)propanoyl)piperidin-3-ylcarbamate], the pKi (matriptase; Table 9.2) was 5.31, the pKi (hepsin; Table 9.2) was 5.55 and the pKi (HGFA; Table 9.2, Fluorogenic Assay) was less than 4.30.
For N=C(N)c1cccc(C[C@H](NS(=O)(=O)c2ccc3ccccc3c2)C(=O)N2CCN(c3ccccc3)CC2)c1 [Compound 25g, (S)-3-(2-(Naphthalene-2-sulfonamido)-3-oxo-3-(4-phenylpiperazin-1-yl)propyl)benzimidamide], the pKi (matriptase; Table 9.1) was 5.74, the pKi (hepsin; Table 9.1) was 5.15 and the pKi (HGFA) was 4.74.
Work on CC(C)c1cc(C(C)C)c(S(=O)(=O)N[C@@H](Cc2cccc(C(=N)N)c2)C(=O)N2CCN(c3ccccc3)CC2)c(C(C)C)c1 [Compound 27, (S)-3-(3-Oxo-3-(4-phenylpiperazin-1-yl)-2-((2,4,6-triisopropylphenyl)sulfonamido)propyl)benzimidamide] yielded a pKi (matriptase; Table 9.1) of 6.12, a pKi (hepsin; Table 9.1) of 5.13 and a pKi (HGFA) of 4.65.
Work on CC(=O)N[C@@H](CCCCN)C(=O)N[C@@H](CCCNC(=N)N)C(=O)N[C@@H](CC(C)C)C(=O)N[C@@H](CCCNC(=N)N)C(=O)c1nc2ccc(C(=O)NCc3ccc(C(=O)O)cc3)cc2s1 [Compound 7164, Ac-KRLR(SEQ ID NO: 8)-kbt-Benzyl-3-COOH] yielded a pKi (thrombin; Table 6.2, headed Fluorogenic Assay) of 5.79.
In the case of N=C(N)NCCC[C@H](NC(=O)[C@@H]1CCCCN1C(=O)[C@H](N)Cc1ccccc1)C(=O)Nc1ccc([N+](=O)[O-])cc1 [Compound S2238, D-Phe-Pip-Arg-pNA, reference compound], the Km (thrombin; read-out: Km of chromogenic substrate for thrombin) was 14.5 µM.
Cc1nc(-c2cccc(C[C@H](NS(=O)(=O)c3ccc4ccccc4c3)C(=O)N3CCN(C(=O)NCc4ccccc4)CC3)c2)no1 [FMF-1-254-004] was tested, and the pKi (matriptase; Table 9.3) was less than 5.00, the pKi (hepsin; Table 9.3) was less than 5.00 and the pKi (HGFA; Table 9.3, Fluorogenic Assay) was less than 4.30.
Molecule CC(C)c1cc(C(C)C)c(S(=O)(=O)N[C@@H](Cc2cccc(C(=N)N)c2)C(=O)N2CCN(C(=O)C3CCN(C(=N)N)CC3)CC2)c(C(C)C)c1 [JWJ-I-135] has a pKi (HGFA; Table 9.1, Fluorogenic Assay) of 4.75 and a pKi (thrombin; Table 9.4) of less than 5.70.
